Test results from patent US6402037B1, “Two-photon upconverting dyes and applications” (The Research Foundation of State University of New York, priority 1995, dated 2002).
Marks after values point to notes of the source that are not given here.

What was measured:
[1] = Decomposition temperature (Td) by DSC thermogram; format: physicochemical; details: DSC under nitrogen
Description: Decomposition temperature (“Td”) of each dye was measured by differential scanning calorimetry (“DSC”) thermogram using a Shimadzu DSC-50GPC under nitrogen. Elemental: analysis were performed by Atlantic Microlab, Inc., P.O. Box 2288, Norcross, Ga. 30019. Proton NMR spectra, TV/visible absorption spectra, and UV/visible emission spectra were recorded using a Varian Gemini-300 300 MHz spectrometer, a Shimazdu UV-3101 PC spectrophotometer, and a Shimazdu RF5000U spectrofluorophotometer, respectively: TV/visible absorption spectra of dyes prepared in these Examples in DMF, are provided in FIG. 3.

[2] = Optical characterization of the dye-doped composite glasses; format: physicochemical
Description: Emission spectra were collected on a Shimadzu RF-5000U Spectrofluorophotometer (90° geometry) having a resolution of ±2 nm. For solution state measurements, a fluorometric quartz cuvette was used. For the composite glass, the emission was obtained from the surface of the glass (90° geometry) due to significant primary absorption. […]

[3] = Solubility
[4] = Optical characterization of the solution state (ethanol); details: for fluorescence quantum yield: vs Rhodamine-6G
Description: Absorption spectra were obtained using a Shimadzu UV-Vis 260 spectrophotometer with a resolution of ±1 nm. The spectra of solution state were obtained using quartz cuvettes (1 cm path length) throughout.
In addition, the quantum yield was measured from the fluorescence data.

[5] = TPA induced fluorescence and optical limiting in dye1-doped epoxy; format: physicochemical
Description: Dye1, prepared in accordance with Example 6, was dispersed in an optical quality epoxy compound, EPO-TEX301 (Epoxy Technology, Inc., Billerica, Mass.) by dissolving the dye powder in the liquid Part A and Part B of the epoxy. Undoped and dye1-doped epoxies were cast by blade casting techniques. Film thickness was the same (0.3 mm) for both films, and the dopant concentration for the doped film was do=0.003 M.
A 2 cm-long, dye1-doped epoxy (EPO-TEX301) rod with a concentration of do=0.004M was used for TPA induced fluorescence and optical limiting measurements. An incident near infrared laser beam, having a wavelength of 1.06 μm, a pulsewidth of about 8 ns, a spectral width of about 1 cm^−1, and a repetition rate of 3 Hz, was provided by a Q-switched Nd-YAG pulsed laser source. The incident 1.06 μm radiation on the sample was a quasi-parallel laser beam of about 1 mm size with a nearly uniform transverse intensity distribution. An orange-red fluorescence emission was readily observed by the human eye in a dark room when the 1.06 μm incident beam intensity reached several MW/cm^2. […] Each data point was averaged over 10 laser pulses by using a gated integrator and boxcar averager. The solid line is the best fitted curve based on the square law that TPA processes follow.
where I(L) is the transmitted beam intensity, Io, is the incident beam intensity, L is the thickness of the sample, and β is the TPA coefficient of the sample medium. In the derivation of Equation (1), it is assumed that the linear attenuation of the medium can be neglected and the beam has a nearly uniform transverse intensity distribution within the medium. Using Equation (1), the value of β can be determined by measuring the transmitted intensity versus the incident intensity for a sample medium with a given L value. Furthermore, the TPA coefficient β (in units of cm/GW) of a given sample is determined by
Here, No is the molecular density of the dopant (in units of 1 cm^3), σ2 is the molecular TPA coefficient (or cross-section) of the same dopant (in units of cm^4/GW, do is the concentration of the dopant compound in the matrix (in units of M), and finally NA is Avogadro's number. For known β and do, the value of σ2 can be calculated from Equation (2). Another expression for molecular TPA coefficient (or cross-section), used in some reference papers, is
where hυ is the energy of an incident photon, and σ′2 has units of cm^4/photon/sec.
The measured transmitted intensity as a function of the incident intensity for the 2 cm-long, dye1-doped epoxy rod is shown in FIG. 9. Two groups of experimental data were obtained in two measurement cycles, and each data point was an average result over 10 laser pulses. In FIG. 9, the solid line is the theoretical curve predicted by Equation (1) using a best fit parameter of β=6 cm/GW, and the dashed line is similarly constructed by assuming that there is no TPA (β=0). Consequently, FIG. 9 evidences the TPA induced optical limiting behavior of dye1 at incident intensity levels of 50-250 MW/cm^2. Using a value of β=6 cm/GW and Equations (2) and (3), the values of molecular TPA cross-section of dye1 were estimated as σ2=2.5×10^−18 cm^4/GW and σ′2=4.7×10^−46 cm^4/photon/sec. These measured values of σ2 and σ2 for dye1 in EPO-TEX301 matrix are 2˜3 orders of magnitude greater than the corresponding values of Rhodamine dyes, as reported by Rapp et al., Chem. Phys. […] The damage threshold of the 2 cm-long, dye1-doped epoxy rod was measured as 250˜300 MW/cm^2.

[6] = Two-photon pumped cavity lasing of dye-doped matrices (1.06 μm pump)
Description: Two-photon pumped cavity lasing experiments were conducted using a Q-switched Nd-YAG pulsed laser source having a wavelength of 1.06 μm, a pulsewidth of about 10 ns, a spectral width of about 1 cm^−1, an angular divergence of about 1.3 mrad, and a variable repetition rate of 1-10 Hz. A 1 cm-long quartz cuvette filled with dye1 solution in cyclopentanone (do≈8×10^−2 to 4×10^−2M) and a 7 mm-long, dye1 -doped poly(HEMA) rod (do,≈8×10^−3 M), prepared in accordance with Example 12, were used separately for two-photon pumped (“TPP”) lasing observation. The 1.06 μm-pump laser beam was focused on the center of the cuvette or sample rod, and a strong orange-red fluorescence emission was observed when the infrared pump intensity reached several MW/cm^2. Once the pump intensity further increased to a certain threshold level, simultaneous forward and backward highly directional superradiation could be observed from the solution or rod samples. To achieve cavity lasing, two parallel plane dielectrc-coating mirrors were employed to form a cavity. The pump beam, focused through a f-10 cm lens, was coupled into the cavity by normal incidence. The reflectivity was r=10% at 1.06 μm and r=99% at 600 nm for the front mirror (input coupler) and r=10% at 1.06 μm and r=50% at 600 nm for the rear mirror (output coupler). The total cavity length was 7˜8 cm, and the cuvette or sample rod was located at the center of the cavity. […] FIGS. 11A-11C show the emission spectra of the same 7 mm-long, dye1 -doped rod sample under the following different excitation conditions: 532 nm one-photon excited fluorescence emission (FIG. 11A), 1.06 μm two-photon excited fluorescence emission (FIG. 11B), and 1.06 μm pumped cavity lasing (FIG. 11C). Each spectrum was obtained using a grating -spectrograph in conjunction with an optical multi-channel analyzer (OMA-III) system. The difference between FIGS. 11A and 11B can be explained by a volume reabsorption effect of the emission. To obtain these two spectra, the excitation beam was incident on the rod end at a +45° angle, and the fluorescence was measured at a −45° angle. In the case of FIG. 11A, the emission was mainly from a shallow surface layer of the sample because of the very short penetration depth of the 532 nm pump radiation, and therefore, the reabsorption effect within the sample can be neglected. However, for the case of FIG. 11B, the incident infrared beam could pass through the whole rod length without obvious depletion, and, consequently, collected fluorescence signals of different spectral components were propagated within the sample for a considerable distance. […] Cavity lasing occurred at the central region of the two-photon absorption (“TPA”) induced fluorescence band, but the lasing bandwidth (˜8 nm) was much narrower than the ordinary one-photon excited fluorescence band width (˜60 nm) due to the lasing threshold requirement. In addition, a red-shift of the central lasing wavelength was observed as the pump energy increased. This shift may be caused by the local temperature change of the sample rod.
Compared to the smooth temporal profile of the 10 ns pump pulse, the lasing pulses manifested much shorter rise- and fall-times, i.e. ≦1.5 ns limited by the resolution of the detecting system. […]
The lasing output/pump input characteristic curve is given in FIG. 13 for the rod cavity lasing. […] However, at this pump level the measured one-pass two-photon absorption in the 7 mm-long rod was only about 23%. […]

[7] = as above; remark: listed apart in the source
[8] = EPO-TEX301 matrix, 1.06 μm, from β
[9] = cyclopentanone solution, 0.001 M

For `CCN(CCO)c1ccc(/C=C/c2cc[n+](CCO)cc2)cc1.[I-]` [ASPI, trans-4-[p-(N-ethyl-N-hydroxyethylamino)styryl]-N-hydroxyethylpyridinium iodide], the “Decomposition temperature (Td)” value [1] was 270 °C, the “Florescence FWHM” value ([2]; Composite Glass, single dye) was 45 nm and the “Fluorescence Max.” value ([2]; Composite Glass, single dye) was 586 nm. For the same compound, the “Florescence FWHM, ASPI emission” value ([2]; composite glass containing both dyes) was 41 nm, the “Fluorescence Max., ASPI emission” value ([2]; composite glass containing both dyes, reconstructed peak) was 594 nm and the solubility ([3]; ethanol, organic solvent or mixture) was 6.1 mM. For the same compound, the solubility ([3]; in PMMA) was “insolubility”, the solubility ([3]; in methyl methacrylate monomer) was “insolubility” and the fluorescence quantum yield ([4]; 1.8×10^−6 M, excited at 482 nm) was 6×10^−3. For the same compound, the fluorescence quantum yield ([4]; 2.6×10^−6 M, excited at 509 nm) was 7×10^−3, the “Quantum Yield” value ([4]; Solution State, Table 2) was 6.5 × 10^−3 and the “Absorbance Max.” value ([4]; ethanol) was 483 nm. For the same compound, the “Stokes Shift” value ([4]; ethanol) was 118 nm, the molar absorptivity ([4]; ethanol, at 483 nm) was 68000 M⁻¹ cm⁻¹ and the “Fluorescence Max.” value ([4]; ethanol, ASPI 3.1×10^−3 M, Rhodamine-6G 6.5×10^−5 M, excitation 509 nm) was 600 nm. The “Florescence FWHM” value ([4]; ethanol, same concentrations, excitation 509 nm) was ~38 nm.
With `CN(C)c1ccc(/C=C/c2cc[n+](C)cc2)cc1.c1ccc([B-](c2ccccc2)(c2ccccc2)c2ccccc2)cc1` [dye2, trans-4-[p-(N,N-dimethylamino)styryl]-N-methylpyridinium tetraphenyborate] the “Decomposition temperature (Td)” value [1] was 266 °C.
With `CCN(CCO)c1ccc(/C=C/c2cc[n+](C)cc2)cc1.c1ccc([B-](c2ccccc2)(c2ccccc2)c2ccccc2)cc1` [dye1, trans-4-[p-(N-ethyl-N-hydroxyethylamino)styryl]-N-methylpyridinium tetraphenyborate] the “Decomposition temperature (Td)” value [1] was 264 °C, the “strong one-photon absorption range” value ([5]; 0.3 mm epoxy film, 0.003 M) was 350˜560 nm and the “TPA coefficient β (best fit)” value ([5]; 2 cm EPO-TEX301 rod, 0.004M, 1.06 μm) was 6 cm/GW. For the same compound, the “TPA cross-section greater than values of Rhodamine dyes” value ([5]; EPO-TEX301 matrix) was 2˜3 orders of magnitude, the “molecular TPA cross-section σ2” value [5, 8] was 2.5×10^−18 cm^4/GW and the “molecular TPA cross-section σ′2” value [5, 8] was 4.7×10^−46 cm^4/photon/sec. It also gave an absorption bandwidth ([6]; poly(HEMA) 0.008M) of 80 nm, a linear absorption peak ([6]; poly(HEMA) 0.008M) of 485 nm and an one-photon fluorescence bandwidth ([6]; poly(HEMA) 0.008M) of 55 nm. For the same compound, the one-photon fluorescence peak ([6]; poly(HEMA) 0.008M) was 577 nm, the “molecular TPA cross-section σ2” value ([6]; poly(HEMA) rod, 1.06 μm, from nonlinear absorption data) was “≈ 1.2×10^−46 cm^4-sec” and the one-photon fluorescence bandwidth ([7]; Vycor glass 0.0015M) was 60 nm. For the same compound, the one-photon fluorescence peak ([7]; Vycor glass 0.0015M) was 575 nm, the absorption bandwidth [7, 9] was 100^a nm and the linear absorption peak [7, 9] was 480^a nm. The one-photon fluorescence bandwidth [7, 9] was 58^a nm, the one-photon fluorescence peak [7, 9] was 590^a nm and the one-photon fluorescence bandwidth ([7]; sol-gel glass 0.0015 M) was 55 nm. It also gave an one-photon fluorescence peak ([7]; sol-gel glass 0.0015 M) of 568 nm.
